Results taken from BindingDB's records for doi:10.7270/Q2ZC817P (The Scripps Research Institute Molecular Screening Center, 2007).
pEC50: −log10 of the molar value.

Each compound was assayed against Sphingosine 1-phosphate receptor 1 (Homo sapiens, UniProt P21453) (assay: potentiators of S1P1 agonist response, dose response, cell-based, potentiator mode, 60K MLSMR set (AID 466)). Conditions: not given.
Chain of Sphingosine 1-phosphate receptor 1 (P21453 whole entry): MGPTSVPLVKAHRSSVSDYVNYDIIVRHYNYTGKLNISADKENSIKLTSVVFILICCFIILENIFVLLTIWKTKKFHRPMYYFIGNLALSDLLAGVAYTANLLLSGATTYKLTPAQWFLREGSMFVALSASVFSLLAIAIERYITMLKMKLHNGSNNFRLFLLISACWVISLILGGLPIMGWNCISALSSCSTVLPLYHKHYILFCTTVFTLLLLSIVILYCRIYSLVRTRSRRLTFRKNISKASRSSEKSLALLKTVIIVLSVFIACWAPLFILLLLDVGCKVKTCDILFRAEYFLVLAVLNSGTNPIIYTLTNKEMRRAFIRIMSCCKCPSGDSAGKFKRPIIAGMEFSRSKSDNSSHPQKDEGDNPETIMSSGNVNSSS

| Compound | pEC50 |
| --- | --- |
| c1ccc2c(c1)oc1c(N3CCN(Cc4ccc5c(c4)OCO5)CC3)ncnc12 | 5.18 |
| CCCCOc1ncnc2c1[nH]c1ccc(F)cc12 [4-butoxy-8-fluoranyl-5H-pyrimido[5,4-b]indole] | 5.51 |
| Cc1cc(C(=O)CSc2nnnn2-c2ccc(O)cc2)c(C)n1Cc1ccc2c(c1)OCO2 [1-(2,5-dimethyl-1-piperonyl-pyrrol-3-yl)-2-[[1-(4-hydroxyphenyl)tetrazol-5-yl]thio]ethanone] | 5.21 |
| CN1/C(=C/C(=O)c2nc(S(C)(=O)=O)ncc2Cl)C(C)(C)c2ccccc21 | 5.04 |
| CC(=O)Nc1cc(OC(C)=O)c2nonc2c1OC(C)=O [Acetic acid 7-acetoxy-5-acetylamino-benzo[1,2,5]oxadiazol-4-yl ester] | 5.24 |
| O=C(NCc1ccco1)C1CCN(C(=O)c2cc3sccc3n2Cc2ccc(Cl)cc2)CC1 [1-[4-(4-chlorobenzyl)thieno[3,2-b]pyrrole-5-carbonyl]-N-(2-furfuryl)isonipecotamide] | 5.01 |

Second part, the compound after the results:

| pEC50 | Compound |
| --- | --- |
| 5.21 | CCCCn1nnnc1SCC(=O)c1ccc(C)c(C)c1 [2-(1-Butyl-1H-tetrazol-5-ylsulfanyl)-1-(3,4-dimethyl-phenyl)-ethanone] |
| 5.58 | COc1cccc2sc(Nc3nc(-c4ccccn4)cs3)nc12 [(4-methoxy-1,3-benzothiazol-2-yl)-[4-(2-pyridyl)thiazol-2-yl]amine] |
| 5.63 | CCOc1ccc(-c2nnc(-c3cccnc3)o2)cc1OCC [2-(3,4-diethoxyphenyl)-5-(3-pyridinyl)-1,3,4-oxadiazole] |
| 6.11 | CCOc1ccc(-c2noc(-c3cccnc3)n2)cc1OC [3-(4-ethoxy-3-methoxy-phenyl)-5-(3-pyridyl)-1,2,4-oxadiazole] |
| 5.39 | O=C(c1cc(-c2ccc(O)cc2)on1)N1CCc2ccccc2C1 [4-[3-(3,4-dihydro-1H-isoquinolin-2-ylcarbonyl)-2H-1,2-oxazol-5-ylidene]cyclohexa-2,5-dien-1-one] |
| < 4.02 | Cc1ccccc1-n1c(SCC(=O)c2cc(C)n(C)c2C)nnc1-c1ccncc1 [2-[[4-(2-methylphenyl)-5-pyridin-4-yl-1,2,4-triazol-3-yl]sulfanyl]-1-(1,2,5-trimethylpyrrol-3-yl)ethanone] |
| 5.08 | CCN(CC)c1ccc2cc(NC(=O)CCC(=O)O)c(=O)oc2c1 [4-[[7-(diethylamino)-2-keto-chromen-3-yl]amino]-4-keto-butyric acid] |
| 5.48 | C=CS(=O)(=O)c1ccc(Oc2ccc(S(=O)(=O)C=C)cc2)cc1 [1-ethenylsulfonyl-4-(4-ethenylsulfonylphenoxy)benzene] |
| 5.56 | CC(C)Oc1cc(O)c2c(=O)c(-c3ccc(O)cc3)coc2c1 [3-(4-hydroxyphenyl)-5-oxidanyl-7-propan-2-yloxy-chromen-4-one] |

Same assay, conditions: inactive by the depositor's call

| Compound | pEC50 |
| --- | --- |
| CCn1nc(-c2cccs2)nc2c(=O)n(C)c(=O)nc1-2 [1-ethyl-6-methyl-3-thiophen-2-yl-pyrimido[5,4-e][1,2,4]triazine-5,7-dione] | 4.50 |
| O=C(Nc1ccc(C(F)(F)F)cc1)C1CCCN1S(=O)(=O)c1cccc2cccnc12 (configuration not stated) [1-(8-quinolinylsulfonyl)-N-[4-(trifluoromethyl)phenyl]-2-pyrrolidinecarboxamide] | 4.99 |
| CN1c2ccccc2C(C)(C)C12C=Cc1cc(O)ccc1O2 (configuration not stated) [1',3',3'-trimethyl-6-spiro[1-benzopyran-2,2'-indole]ol] | 4.91 |
| CC(=O)N1C=CN(C(C)=O)C(c2cn(C)c3ccccc23)C1c1cn(C)c2ccccc12 (configuration not stated) [1-[4-acetyl-2,3-bis(1-methyl-3-indolyl)-2,3-dihydropyrazin-1-yl]ethanone] | 4.68 |

Other lines, results leading:

| pEC50 | Compound |
| --- | --- |
| 4.82 | Cc1ccccc1OCC(=O)Nc1ccc(N2CCN(C(=O)C(C)C)CC2)c(Cl)c1 [MLS000034491] |
| 4.76 | CC(=O)Nc1ccc(S(=O)(=O)N2CCN(CCCOc3cc(C)ccc3C)CC2)cc1 [MLS000050317] |
| 4.94 | COc1ccc(-n2c(C)cc(C(=O)COC(=O)Cn3cnc4ccccc43)c2C)cc1 [2-(1-benzimidazolyl)acetic acid [2-[1-(4-methoxyphenyl)-2,5-dimethyl-3-pyrrolyl]-2-oxoethyl] ester] |
